Source: patent US12595251B2, “Amidines and amidine analogs for the treatment of bacterial infections and potentiation antibiotics” (GEORGIA STATE UNIVERSITY RESEARCH FOUNDATION, INC., priority 2018, dated 2026)

How the values were obtained:
E. coli = experiment: MIC of compounds against E. coli (OD600, 48 h); type: cell-based; conditions: Escherichia coli; for inhibition at 12 µM: compound alone at 12 μM, read-out: Growth inhibition of E. coli at 12 μM; for inhibition at 12 µM / MIC: NA=no activity; for MIC: MIC = 90% growth inhibition, compound alone; for inhibition at 25 µM: read-out: Growth inhibition of E. coli at 25 μM, compound alone at 25 μM, NA=no activity; for inhibition at 50 µM: read-out: Growth inhibition of E. coli at 50 μM, compound alone at 50 μM, NA=no activity
B. subtilis = experiment: MIC of compounds against B. subtilis (OD600, 48 h); type: cell-based; conditions: Bacillus subtilis; for inhibition at 3 µM: read-out: Growth inhibition of B. subtilis at 3 μM, compound alone at 3 μM, NA=no activity; for inhibition at 6 µM: read-out: Growth inhibition of B. subtilis at 6 μM, compound alone at 6 μM, NA=no activity; for inhibition at 12 µM: compound alone at 12 μM, read-out: Growth inhibition of B. subtilis at 12 μM; for inhibition at 25 µM: read-out: Growth inhibition of B. subtilis at 25 μM, compound alone at 25 μM; for MIC: MIC = 90% growth inhibition, compound alone; for inhibition at 12.5 µM: compound alone at 12.5 μM, NA=no activity, read-out: Growth inhibition of B. subtilis at 12.5 μM; for inhibition at 2 µM: read-out: Growth inhibition of B. subtilis at 2 μM, compound alone at 2 μM; for inhibition at 1 µM: read-out: Growth inhibition of B. subtilis at 1 μM, compound alone at 1 μM
Protocol: Bacteria were then cultured with varying concentration of the compounds shown below for 48 hours, and then bacterial density was measured based on OD600. The procedure to determine the MIC for each compound against B. subtilis was the same except that the bacteria was cultured in nutrient broth. The MIC of each compound against B. subtilis is shown in Table 2 (NA=no activity, --=not tested).

Cc1cc(CSc2ccc(C(=N)N)cc2)cc(CSc2ccc(C(=N)N)cc2)c1 [drawing 791]
inhibition at 12 µM (E. coli): 15% | inhibition at 3 µM (B. subtilis): 10% | inhibition at 6 µM (B. subtilis): 40%

CO/N=C(\N)c1ccc(OCc2cc(C)cc(COc3ccc(/C(N)=N\OC)cc3)c2)cc1 [drawing 795]
MIC (E. coli): 100 µM

Cc1cc(COc2ccc(C(=N)N)cc2)cc(COc2ccc(C(=N)N)cc2)c1 [drawing 761]
inhibition at 12 µM (E. coli): 15% | inhibition at 25 µM (E. coli): 25% | inhibition at 12 µM (B. subtilis): 20% | inhibition at 25 µM (B. subtilis): 50%

CCCCc1cc(OCc2ccc(C(=N)N)cc2)cc(OCc2ccc(C(=N)N)cc2)c1 [drawing 796]
inhibition at 10 µM (E. coli; read-out: Growth inhibition of E. coli at 10 μM, compound alone at 10 μM): 20%

Cc1cc(COc2ccc(C3=NCCN3)cc2)cc(COc2ccc(C3=NCCN3)cc2)c1 [drawing 779]
inhibition at 12 µM (E. coli): 10% | inhibition at 25 µM (E. coli): 25% | inhibition at 12 µM (B. subtilis): 25% | inhibition at 6 µM (B. subtilis): 20%

N=C(N)c1ccc(OCc2cccc(COc3ccc(C(=N)N)cc3)c2F)cc1 [drawing 758]
inhibition at 12 µM (E. coli): 80% | inhibition at 6 µM (E. coli; read-out: Growth inhibition of E. coli at 6 μM, compound alone at 6 μM): 60% | inhibition at 12 µM (B. subtilis): 60% | inhibition at 6 µM (B. subtilis): 50%

CCCNC(=N)c1ccc(COc2cc(C)cc(OCc3ccc(C(=N)NCCC)cc3)c2)cc1 [drawing 786]
MIC (B. subtilis): 50 µM | inhibition at 12.5 µM (B. subtilis): 30% | inhibition at 25 µM (B. subtilis): 50%

N=C(N)c1ccc(OCc2cc(COc3ccc(C(=N)N)cc3)cc(COc3ccc(C(=N)N)cc3)c2)cc1 [drawing 781]
inhibition at 12 µM (E. coli): 40% | inhibition at 25 µM (E. coli): 60% | MIC (B. subtilis): 12 µM | inhibition at 6 µM (B. subtilis): 80%

CC(C)NC(=N)c1ccc(OCc2cccc(COc3ccc(C(=N)NC(C)C)cc3)c2F)cc1 [drawing 784]
inhibition at 12 µM (E. coli): 60% | inhibition at 25 µM (E. coli): 80% | inhibition at 12 µM (B. subtilis): 80% | inhibition at 6 µM (B. subtilis): 70%

Cc1cc(COc2cccc(C(=N)N)c2)cc(COc2cccc(C(=N)N)c2)c1 [drawing 790]
inhibition at 50 µM (E. coli): 80% | MIC (B. subtilis): 50 µM

Cc1cc(COc2ccc(C3=CCCCN3)cc2)cc(COc2ccc(C3=NCCCN3)cc2)c1
MIC (B. subtilis): 50 µM | inhibition at 25 µM (B. subtilis): 50%

N=C(N)c1ccc(OCCCCCCOc2ccc(C(=N)N)cc2)cc1 [drawing 778]
inhibition at 12 µM (E. coli): 40% | inhibition at 25 µM (E. coli): 70% | MIC (B. subtilis): 12 µM | inhibition at 2 µM (B. subtilis): 30% | inhibition at 6 µM (B. subtilis): 40%

N=C(N)c1ccc(OCCCCCCCCOc2ccc(C(=N)N)cc2)cc1 [drawing 774]
MIC (E. coli): 25 µM

Cc1cc(COc2ccc(C(=N)NC(C)C)cc2)cc(COc2ccc(C(=N)NC(C)C)cc2)c1 [drawing 767]
inhibition at 12 µM (E. coli): 40% | inhibition at 25 µM (E. coli): 50% | MIC (B. subtilis): 6 µM | inhibition at 1 µM (B. subtilis): 60% | inhibition at 2 µM (B. subtilis): 70%

Cc1cc(COc2ccc(CN)cc2)cc(COc2ccc(CN)cc2)c1 [drawing 780]
inhibition at 12 µM (E. coli): 10% | inhibition at 25 µM (E. coli): 30% | inhibition at 12 µM (B. subtilis): 10%

c1cc(COc2ccc(C3=NCCN3)cc2)cc(COc2ccc(C3=NCCN3)cc2)c1 [drawing 762]
inhibition at 12 µM (E. coli): 25% | inhibition at 25 µM (E. coli): 50%

CC(C)(C)c1cc(COc2ccc(C(=N)N)cc2)cc(COc2ccc(C(=N)N)cc2)c1 [drawing 770]
inhibition at 12 µM (E. coli): 40% | inhibition at 25 µM (E. coli): 90% | MIC (B. subtilis): 6 µM | inhibition at 1 µM (B. subtilis): 10% | inhibition at 2 µM (B. subtilis): 70%

N=C(N)c1ccc(OCc2cccc(COc3ccc(C(=N)N)cc3)c2)cc1 [drawing 773]
inhibition at 12 µM (E. coli): 35% | inhibition at 25 µM (E. coli): 50% | inhibition at 50 µM (E. coli): 60% | inhibition at 12 µM (B. subtilis): 70% | inhibition at 2 µM (B. subtilis): 30% | inhibition at 6 µM (B. subtilis): 60%

Cn1c(CCc2nc3cc(C(=N)N)ccc3n2C)nc2cc(C(=N)N)ccc21 [drawing 759]
inhibition at 50 µM (E. coli): 10% | inhibition at 12.5 µM (B. subtilis): 20% | inhibition at 25 µM (B. subtilis): 70%

N=C(N)c1ccc(OCc2ccc(COc3ccc(C(=N)N)cc3)cc2)cc1 [drawing 766]
inhibition at 12 µM (E. coli): 10% | inhibition at 25 µM (E. coli): 20% | inhibition at 12 µM (B. subtilis): 70% | inhibition at 6 µM (B. subtilis): 60%

N=C(N)c1ccc(OCc2ccc(-c3ccc(C(=N)N)cc3)cc2)cc1 [drawing 756]
inhibition at 25 µM (E. coli): 50% | MIC (B. subtilis): 12.5 µM | inhibition at 2 µM (B. subtilis): 30%

N=C(N)c1ccc(OCc2cccc(COc3ccc(C(=N)N)cc3F)c2F)c(F)c1 [drawing 757]
inhibition at 12 µM (E. coli): 40% | inhibition at 25 µM (E. coli): 70% | inhibition at 50 µM (E. coli): 90% | MIC (B. subtilis): 12.5 µM | inhibition at 2 µM (B. subtilis): 10%

Cc1cc(OCc2ccc(C(=N)N)cc2)cc(OCc2ccc(C(=N)N)cc2)c1 [drawing 783]
inhibition at 25 µM (E. coli): 30% | inhibition at 12 µM (B. subtilis): 20%

Cc1ccc(COc2ccc(C(=N)N)cc2)cc1COc1ccc(C(=N)N)cc1 [drawing 793]
inhibition at 12 µM (B. subtilis): 60% | inhibition at 6 µM (B. subtilis): 40%

N=C(N)c1ccc(OCc2cccc(COc3ccc(C(=N)N)cc3)n2)cc1 [drawing 776]
inhibition at 50 µM (E. coli): 50% | MIC (B. subtilis): 12.5 µM | inhibition at 2 µM (B. subtilis): 40%

Cc1cc(CSc2ccc(C3=NCCN3)cc2)cc(CSc2ccc(C3=NCCN3)cc2)c1 [drawing 792]
inhibition at 12.5 µM (E. coli; compound alone at 12.5 μM, read-out: Growth inhibition of E. coli at 12.5 μM): 10%

CC(C)NC(=N)c1ccc(OCc2cccc(COc3ccc(C(=N)NC(C)C)cc3F)c2F)c(F)c1 [drawing 785]
inhibition at 12 µM (E. coli): 40% | inhibition at 25 µM (E. coli): 50% | inhibition at 12 µM (B. subtilis): 70% | inhibition at 6 µM (B. subtilis): 60%

Fc1c(COc2ccc(C3=NCCN3)cc2)cccc1COc1ccc(C2=NCCN2)cc1 [drawing 763]
inhibition at 25 µM (E. coli): 20%

Cc1cc(COc2ccc(C(=N)N)cc2F)cc(COc2ccc(C(=N)N)cc2F)c1 [drawing 794]
inhibition at 25 µM (E. coli): 30%

N=C(N)c1ccc(OCOc2ccc(C(=N)N)cc2)cc1 [drawing 777]
inhibition at 12.5 µM (B. subtilis): 80% | inhibition at 6 µM (B. subtilis): 10%

Cc1cc(-c2nc3cc(C(=N)N)ccc3n2C)sc1-c1ccc(OCCCCOc2ccc(C(=N)N)cc2)cc1 [drawing 775]
inhibition at 25 µM (E. coli): 30% | inhibition at 12 µM (B. subtilis): 70%

CC(C)(C)c1cc(COc2ccc(C(=N)N)cc2F)cc(COc2ccc(C(=N)N)cc2F)c1 [drawing 789]
MIC (E. coli): 50 µM | MIC (B. subtilis): 50 µM

Cn1c(CCCCc2nc3ccc(C(=N)N)cc3n2C)nc2ccc(C(=N)N)cc21 [drawing 754]
inhibition at 25 µM (B. subtilis): 20%

N=C(N)c1ccc2nc(-c3ccc(OCC(F)(F)C(F)(F)COc4ccc(-c5nc6ccc(C(=N)N)cc6[nH]5)cc4)cc3)[nH]c2c1 [drawing 753]
inhibition at 25 µM (E. coli): 50% | inhibition at 12.5 µM (B. subtilis): 10% | inhibition at 25 µM (B. subtilis): 20%

N=C(N)c1ccc(Oc2ccc(C(=N)N)cc2)cc1 [drawing 755]
inhibition at 12.5 µM (B. subtilis): 60% | inhibition at 25 µM (B. subtilis): 70%

Cn1c(-c2ccc(-c3ccc(C(=N)N)cc3)s2)nc2cc(-c3ccc(C(=N)N)cc3)ccc21 [drawing 771]
inhibition at 25 µM (E. coli): 15% | MIC (B. subtilis): 12 µM | inhibition at 2 µM (B. subtilis): 20% | inhibition at 6 µM (B. subtilis): 50%

Cc1cc(CCc2ccc(C(=N)N)cc2)cc(CCc2ccc(C(=N)N)cc2)c1 [drawing 782]
inhibition at 12 µM (E. coli): 10% | inhibition at 25 µM (E. coli): 20% | inhibition at 12 µM (B. subtilis): 80% | inhibition at 6 µM (B. subtilis): 30%

N=C(N)c1ccc2[nH]c(-c3ccc(-c4ccc(-c5ccc(-c6ccc(-c7nc8cc(C(=N)N)ccc8[nH]7)cc6)s5)s4)cc3)nc2c1 [drawing 772]
inhibition at 50 µM (E. coli): 10% | inhibition at 12 µM (B. subtilis): 20% | inhibition at 6 µM (B. subtilis): 20%

COc1cc(C(=N)N)ccc1OCc1cc(COc2ccc(C(=N)N)cc2OC)cc(C(C)(C)C)c1 [drawing 788]
inhibition at 50 µM (E. coli): 80% | inhibition at 3 µM (B. subtilis): 30% | inhibition at 6 µM (B. subtilis): 40%
